Results taken from US4795715A, “Aminoalkoxy or carboxyalkoxy derivatives of propranolol for immunoassay applications” (Drug Science Foundation, priority 1986, dated 1989).

Test system: propranolol antiserum (produced in Example 1)
Assay: Specificity (cross-reactivity) of the antiserum of Example 1: inhibition of 3H propranolol-antibody complex formation (radioimmunoassay)
Format: binding, rabbit
Details: for relative efficiency of the compound with respect to propranolol as an inhibitor (percentage): propranolol = 100 %; for ID50 (amount of compound giving 50% inhibition of 3H-propranolol binding to antiserum): dl-[4-3H]-propranolol tracer
Procedure: Five New Zealand White rabbits were injected with an emulsion of the antigen as follows. For each animal, a solution was prepared consisting of 1 mg. of antigen dissolved in 0.8 ml. of 0.01M phosphate buffered saline at pH 7.4 and emulsified with 1.0 ml. of complete Freund's adjuvant. One hundred microliters of this emulsion was injected subcutaneously into each of the hind toe pads with the remainder divided between the hindquarters intramuscularly. One week later the animals were boosted with the same formulation, and additional boosts were administered at montly intervals thereafter. […] Bleedings were taken from the central ear artery seven to ten days after each boost, and weekly once the titre was sufficient. Blood was allowed to clot overnight at 4° C. and centrifuged to separate antiserum.
Radioactive dl-[4-^3 H]-propranolol with a specific activity of 21 C./mMol was obtained from the Radiochemical Center Amersham. This tritiated propranolol was diluted in the assay buffer just prior to use to obtain about 15000 cpm in 100 microliters of solution; 100 microliters of this preparation was added to each tube, including two background controls. The propranolol antiserum was diluted to 1:2000 in the buffer and 100 microliters of this solution was added to each tube with the exception of the background controls. The tubes were then vortexed, incubated at 37° C. for one hour, and cooled in an ice bath for 10 minutes prior to the addition of dextran-coated charcoal suspension.
Each tube was treated with one ml. of cold dextran-coated charcoal suspension and vortexed briefly, then incubated at 0° C. for 7-10 minutes prior to centrifugation at 5000 RPM in a refrigerated centriguge for 25 minutes. The supernatants were decanted into suitably labelled scintillation vials, dissolved in 10 ml. of counting cocktail and counted for 1-5 minutes. Counting cocktail was prepared by dissolving 40 g. of Omnifluor™ (purchased from New England Nuclear) and 2 liters of S-A-S Solubilizer™ (purchased from Research Products International Corp.) in 10 liters of toluene.

SMILES | relative efficiency of the compound with respect to propranolol as an inhibitor (percentage) | cross reactivity with the antiserum (in words) | ID50 (amount of compound giving 50% inhibition of 3H-propranolol binding to antiserum)
CC(C)NCC(O)COc1cccc2ccccc12 (racemic) [Propranolol] | 100% |  | 
CC(C)NCC(O)COc1ccc(O)c2ccccc12 (stereo not drawn) [4-Hydroxy-Propranolol] | 30% | significant cross reactivity | 
CC(C)NCC(O)COc1cccc2c(O)cccc12 (stereo not drawn) [5-Hydroxy-Propranolol] | 90% | cross-react | 
NCC(O)COc1cccc2ccccc12 (stereo not drawn) [Ndesisopropyl Propranolol Amino] | 0.06% |  | 780 ng
CC(C)NCC(COc1cccc2ccccc12)OC1OC(C(=O)O)C(O)C(O)C1O (stereo not drawn) [Propranolol Glucuromide] | 0.07% |  | 700 ng
